Results: patent US10457639B2, “Fluorescent regulators of RASSF1A expression and human cancer cell proliferation” (GEORGETOWN UNIVERSITY, priority 2008, dated 2019)

Legend:
PC-3 cells = test: BrdU labeling, DNA synthesis (Cell Proliferation ELISA BrdU); type: cell-based, human; settings: 5 μM compound, 24 hours
Experimental: PC-3 cells were plated in 96-well plates and treated with 5 μM of compound. After 24 hours, the cells were assayed for BrdU labeling using the Cell Proliferation ELISA BrdU kit from Roche; background BrdU incorporation levels (absent anti-BrdU-peroxidase solution) were subtracted and values were normalized to those of control untreated cells.
BrdU Labeling. For the BrdU experiment, PC-3 cells were seeded in 96-well plates at a density of 2×10^3 cells/well, treated with 5 μM of compound for 24 hr and assayed BrdU using the Cell Proliferation ELISA BrdU (chemiluminescence) (Roche Diagnostics, IN) kit according to the manufacturer's protocol. Briefly, 10 μL of 100 μM BrdU labeling solution was added to the cultured cells and were incubated for 1 hr at 37° C., the labeling solution was removed and the FixDenat solution provided with the kit was added for 30 min and incubated at room temperature. Cells were then incubated with anti-BrdU conjugated to peroxidase (1:1500) for 60 min. Finally, the plates were washed and 100 μL of substrate solution was added to each well, and the light emission was measured using a microplate luminometer (Harta Instruments, Inc., Gaithersburg, Md.).
To assess the levels of DNA synthesis within cells treated with mahanine compared to those treated with compounds 6-10, cultured cells were treated according to standard procedure with 5-bromo-2-deoxy-uridine (BrdU) after 24 hours of treatment (FIG. 2).

DNMT3a = target: T1, DNMT3a (Homo sapiens, UniProt Q9Y6K1); test: Multiphoton laser imaging, DNMT3a antibody staining; type: cell-based; settings: PC-3 cells, 5 μM (data not shown)
T1 construct: treated with propidium iodide (nuclear localization) and DNMT3a or DNMT3b; endogenous in cells; host or cells: PC-3 human prostate cancer cells
Experimental: Multiphoton laser imaging. After incubating slides with a fibronectin/cortactin solution for 30 minutes, PC-3 cells were plated onto the slides and incubated overnight. The cells were then treated with a 5 μM solution of compound 6a or DMSO control and incubated for 1-6 hour before washing with PBS. The slides were fixed with a 4% formaldehyde solution, washed with PBS then treated with propidium iodide (nuclear localization) and DNMT3a or DNMT3b. The compound was excited at 725 nm with a multiphoton laser and imaged with a 500-550 nm filter.
The dansyl moiety present in compound 6a allows it to visibly fluoresce at 552 nm when excited at 370 nm (FIG. 4A). After treating PC-3 cells with compound 6a, a multiphoton laser was used to excite the compound, and its emission from within the cells was observed by confocal microscopy (FIG. 4B-D). […] To further confirm the hypothesis that compound 6a interaction with DNMT is a crucial factor in the ultimate up-regulation of RASSF1A, the cell samples were stained with antibodies for the DNMT isoforms known to shuttle between the nucleus and the cytoplasm, DNMT3a and DNMT3b (Kim et al., EMBO J, 2002, 21: 4183-4195; Majumber et al., JBC, 2002, 277: 16048-16058). […] Thus, cytoplasmic sequestering of DNMT3b is implied as a mode of action for compound 6a.

[1] = tested on: human prostate tumor xenografts (PC-3); test: PC-3 human prostate xenograft study; type: in vivo, mouse; settings: athymic Balb/c nude mice, 10 mg/kg IP every other day, over 25 days
Experimental: Male athymic Balb/c nude mice were injected with PC-3 cells and the resulting tumors allowed to grow for a week before dosing IP once a day every other day with 10 mg/kg compound 6a or DMSO control in 1:1 PEG/PBS. Data are presented as the mean±SEM (n=4).
Cell Culture for Xenograft. PC-3 cell line (ATCC, Manassas, Va.) was cultured in RPMI-1640 with L-glutamine (Mediatech Inc., Herdon, Va.) containing 5% fetal bovine serum (FBS), 2.5 mM L-glutamine at 37° C. with 5% CO2.
Xenograft Study. Male athymic Balb/c nude mice (18-22 g) were injected with 3×106 (0.3 mL) of the human prostate cancer cells (PC-3). The human prostate cancer cells were injected in the subcutaneous tissue of the right axillary region of the mice. One week after the injection, the mice were randomly sorted into two groups with four mice per group. A stock solution of compound 6a was obtained by dissolving 1 mg of compound in 1 μl DMSO. The stock was added to polyethylene glycol 400 (PEG) (Hampton) and PBS in a 1:1 ratio. The test concentrations were obtained by diluting with PEG/PBS. The tumor-bearing mice received an intraperitoneal injection (IP) with either 10 mg/kg of 6a or vehicle control once every other day for 4 weeks. At the same time, the tumor size of each mouse was measured by caliper and calculated by the formula: Length×width×height/2. […]

T1 sequence (Q9Y6K1 whole entry, looked up): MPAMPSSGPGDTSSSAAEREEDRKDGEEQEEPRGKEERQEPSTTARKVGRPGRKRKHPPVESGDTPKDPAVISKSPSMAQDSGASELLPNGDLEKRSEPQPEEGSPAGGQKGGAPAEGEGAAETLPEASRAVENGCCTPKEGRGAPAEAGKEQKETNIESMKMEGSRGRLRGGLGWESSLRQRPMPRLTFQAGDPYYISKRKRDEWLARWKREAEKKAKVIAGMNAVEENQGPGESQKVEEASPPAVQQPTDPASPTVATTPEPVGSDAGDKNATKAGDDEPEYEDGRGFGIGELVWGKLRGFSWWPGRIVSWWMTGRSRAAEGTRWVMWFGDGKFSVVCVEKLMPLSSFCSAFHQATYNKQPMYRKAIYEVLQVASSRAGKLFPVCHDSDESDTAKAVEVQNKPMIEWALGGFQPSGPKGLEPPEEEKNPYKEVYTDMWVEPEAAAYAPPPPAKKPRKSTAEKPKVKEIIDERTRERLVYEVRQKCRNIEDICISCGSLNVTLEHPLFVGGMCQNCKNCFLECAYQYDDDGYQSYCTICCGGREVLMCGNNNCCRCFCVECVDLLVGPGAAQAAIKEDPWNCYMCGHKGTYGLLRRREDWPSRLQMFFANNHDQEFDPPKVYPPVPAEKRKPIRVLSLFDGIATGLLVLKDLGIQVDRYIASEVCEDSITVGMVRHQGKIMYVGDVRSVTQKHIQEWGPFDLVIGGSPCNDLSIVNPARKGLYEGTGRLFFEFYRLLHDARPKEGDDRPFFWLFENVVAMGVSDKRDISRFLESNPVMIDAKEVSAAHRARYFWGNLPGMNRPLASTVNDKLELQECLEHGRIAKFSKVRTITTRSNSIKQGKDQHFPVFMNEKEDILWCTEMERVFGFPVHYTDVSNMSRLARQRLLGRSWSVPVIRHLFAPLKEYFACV

Q: What does the source list for `COc1ccc2c(c1)[nH]c1c(C)c(OS(=O)(=O)c3cccc4c(N(C)C)cccc34)ccc12` [Compound 6a, 7-Methoxy-1-methyl-9H-carbazol-2-yl 5-(dimethylamino)naphthalene-1-sulfonate]?
A: DNA synthetic ability (BrdU labeling) (PC-3 cells): decrease in DNA synthetic ability; DNMT3a localization (DNMT3a): No corresponding effect was seen with DNMT3a; reduction of tumor volume compared to control [1]: roughly 40%
